Reference: PubChem BioAssay (NCI)
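Grown in 96-well plates, cells were treated for 48 hours with each compound at five concentrations. Insufficient inhibition: endpoint recorded as highest concentration tested. At the TGI there is no net growth.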

How the values were obtained:
Assay in all cases: growth of human tumour cells (NCI), 48 h
[1] = tested on: A549 NSCLC
[2] = tested on: IGROV1 ovarian
[3] = tested on: BT-549 breast
[4] = tested on: UACC-62 melanoma
[5] = tested on: SN12C renal
[6] = tested on: NCI-H23 lung
[7] = tested on: COLO 205 colon
[8] = tested on: SK-MEL-5 melanoma
[9] = tested on: HOP-62 NSCLC
[10] = tested on: SW-620 colon
[11] = tested on: MDA-N
[12] = tested on: HS 578T breast
[13] = tested on: NCI-H522 lung
[14] = tested on: NCI/ADR-RES ovarian
[15] = tested on: SK-MEL-28 melanoma
[16] = tested on: SNB-19 CNS
[17] = tested on: SF-295 CNS
[18] = tested on: HL-60(TB) leukemia
[19] = tested on: ACHN renal
[20] = tested on: MCF7 breast
[21] = tested on: M14 melanoma
[22] = tested on: HCT-116 colon
[23] = tested on: KM12 colon
[24] = tested on: OVCAR-5 ovarian
[25] = tested on: 786-0 renal
[26] = tested on: RPMI-8226 leukemia
[27] = tested on: T-47D breast
[28] = tested on: A498 renal
[29] = tested on: EKVX NSCLC
[30] = tested on: MOLT-4 leukemia
[31] = tested on: NCI-H226 lung
[32] = tested on: SNB-75 CNS
[33] = tested on: OVCAR-3 ovarian
[34] = tested on: SR leukemia
[35] = tested on: SF-268 CNS
[36] = tested on: UACC-257 melanoma
[37] = tested on: LOX IMVI melanoma
[38] = tested on: OVCAR-8 ovarian
[39] = tested on: RXF 393 renal
[40] = tested on: HT29 colon
[41] = tested on: CCRF-CEM leukemia
[42] = tested on: HCT-15 colon
[43] = tested on: HOP-92 NSCLC
[44] = tested on: K-562 leukemia
[45] = tested on: PC-3 prostate
[46] = tested on: MALME-3M melanoma
[47] = tested on: NCI-H460 lung
[48] = tested on: UO-31 renal
[49] = tested on: SK-MEL-2 melanoma
[50] = tested on: SK-OV-3 ovarian
[51] = tested on: U251 CNS
[52] = tested on: OVCAR-4 ovarian
[53] = tested on: MDA-MB-231 breast
[54] = tested on: DU-145 prostate
[55] = tested on: TK-10 renal
[56] = tested on: MDA-MB-435
[57] = tested on: SF-539 CNS
[58] = tested on: HCC-2998 colon
[59] = tested on: CAKI-1 renal

Measured: TGI

COC(=O)C1(Cc2ccccc2)Cc2cc3c(cc2C1)CCC3
50.7 µM: [39]
35 µM: [30]
52.6 µM: [46]
56.4 µM: [13]
24.6 µM: [40]
76.9 µM: [22]
78.8 µM: [36]
35.6 µM: [56]
42.5 µM: [20]
95.4 µM: [32]
31.3 µM: [18] | [34]
76.4 µM: [23]
33.7 µM: [8]
60.9 µM: [29]
34.7 µM: [37]
36.5 µM: [26]
> 100 µM: [1] | [2] | [3] | [4] | [5] | [6] | [9] | [10] | [12] | [14] | [15] | [16] | [17] | [19] | [21] | [25] | [33] | [35] | [42] | [45] | [47] | [48] | [50] | [52] | [53] | [54] | [55] | [57] | [58]
75.9 µM: [27]
82.6 µM: [24]
63.3 µM: [31]
64.9 µM: [51]
40.1 µM: [49]
33.3 µM: [7]
53.5 µM: [11]
88.9 µM: [38]
41.2 µM: [43]
31.6 µM: [41]
82.4 µM: [28]
41.6 µM: [44]

CC(=O)N/N=C1/NN(C(C)=O)C2(S1)C(=O)Nc1ccc(C)cc12 (centres undefined)
> 100 µM: [1] | [2] | [3] | [4] | [5] | [6] | [7] | [8] | [9] | [11] | [12] | [13] | [14] | [15] | [16] | [17] | [18] | [19] | [20] | [21] | [22] | [23] | [24] | [25] | [26] | [28] | [29] | [30] | [31] | [32] | [33] | [34] | [59] | [35] | [36] | [37] | [38] | [39] | [40] | [41] | [42] | [43] | [44] | [45] | [46] | [47] | [48] | [51] | [52] | [53] | [54] | [55] | [56] | [57] | [58]
70.9 µM: [27]
